Legend:
Assay type in all cases: in vivo
[1] = tested on: barnyard grass (Echinochloa crus-galli Beauv.); test: Test Example 1: herbicidal effect on paddy field weeds before emergence; details: Dosage 5 kg/ha
Outline: (§1)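 Seeds of both weeds, still ungerminated, in soil pots held under paddy conditions received a set dose of test solution as soil treatment. After twenty-one days, control relative to untreated pots was calculated and rated on a scoring scale.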

[2] = tested on: bulrush (Scirpus juncoides Roxb.); test: as above; details: Dosage 5 kg/ha
Outline: as §1

[3] = tested on: barnyard grass (Echinochloa crus-galli Beauv.); test: Test Example 2: herbicidal effect on paddy field weeds after emergence; details: Dosage 5 kg/ha; one-leaved stage; 21 days after treatment
Outline: (§2)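 Weeds were sown in 1/10000 are pots of soil flooded to paddy conditions and grown to the one-leaf stage, then the soil was treated with a solution of compound at a predetermined dosage.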

[4] = tested on: bulrush (Scirpus juncoides Roxb.); test: as above; details: Dosage 5 kg/ha; one-leaved stage; 21 days after treatment
Outline: as §2

[5] = tested on: monochoria (Monochoria vaginalis Presl); test: as above; details: Dosage 5 kg/ha; one-leaved stage; 21 days after treatment
Outline: as §2

[6] = tested on: barnyard grass (Echinochloa crus-galli Beauv.), Ec; test: Test Example 3: herbicidal effect on upland weeds before emergence; details: dosage 5 kg/ha
Outline: (§3)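 Test compound, formulated as a liquid at a fixed concentration, is sprayed before weed emergence. Two weeks later, kill rate is derived and herbicidal activity is rated.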

[7] = tested on: bird's eye speedwell (Veronica persica Poir.), Vp; test: as above; details: dosage 5 kg/ha
Outline: as §3

[8] = tested on: cleavers (Galium aparine L.), Ga; test: as above; details: dosage 5 kg/ha
Outline: as §3

[9] = tested on: cocklebur (Xanthium strumarium L.), Xs; test: as above; details: dosage 5 kg/ha
Outline: as §3

[10] = tested on: forxtail grass (Alopecurus aequalis var. amurensis Ohwi), Am; test: as above; details: foxtail grass, dosage 5 kg/ha
Outline: as §3

[11] = tested on: velvetleaf (Abutilon theophtasti L.), At; test: as above; details: dosage 5 kg/ha
Outline: as §3

soybean plant (So) = test: Test Example 3: phytotoxicity to upland crop plants, treatment before emergence; details: dosage 5 kg/ha
Outline: (§4)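 A sprayed liquid agent with a prescribed concentration of active compound was applied pre-emergence. Visual phytotoxicity on soybean and wheat was rated by criterion two weeks (14 days) after application, concurrently with the herbicidal assessment.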

wheat (Wh) = test: as above; details: dosage 5 kg/ha
Outline: as §4

[12] = tested on: barnyard grass (Echinochloa crus-galli Beauv.), Ec; test: Test Example 4: herbicidal effect on upland weeds after emergence; details: dosage 5 kg/ha; sprayed after emergence; judged 14 days after treatment
Outline: (§5)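 Soil vats; sown weeds + soybean/wheat; spray at leaf-stage, prescribed compound concentration; weed-kill rate judged day 14.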

[13] = tested on: bird's eye speedwell (Veronica persica Poir.), Vp; test: as above; details: dosage 5 kg/ha; sprayed after emergence; judged 14 days after treatment
Outline: as §5

[14] = tested on: cleavers (Galium aparine L.), Ga; test: as above; details: dosage 5 kg/ha; sprayed after emergence; judged 14 days after treatment
Outline: as §5

[15] = tested on: cocklebur (Xanthium strumarium L.), Xs; test: as above; details: dosage 5 kg/ha; sprayed after emergence; judged 14 days after treatment
Outline: as §5

[16] = tested on: forxtail grass (Alopecurus aequalis var. amurensis Ohwi), Am; test: as above; details: dosage 5 kg/ha; sprayed after emergence; judged 14 days after treatment
Outline: as §5

[17] = tested on: velvetleaf (Abutilon theophtasti L.), At; test: as above; details: dosage 5 kg/ha; sprayed after emergence; judged 14 days after treatment
Outline: as §5

soybean plant = test: Test Example 4: phytotoxicity to upland crop plants, treatment after emergence; details: dosage 5 kg/ha, sprayed after emergence, judged 14 days after treatment
Outline: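 Post-emergence foliar spray, compound at prescribed concentration, applied at defined leaf stages; weeds plus soybean/wheat grown in soil vats. Read-out: weed-killing rate and crop injury, 14 d post-treatment.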

wheat = test: as above; details: dosage 5 kg/ha, sprayed after emergence, judged 14 days after treatment
Outline: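 Seeds sown in soil and covered. Plants raised to specified leaf stages. Agent with test compound at a prescribed concentration sprayed. Herbicidal effect and crop damage scored after 14 days as weed-killing rate.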

| Structure (SMILES) | Pre-emergence treatment Barnyard grass (herbicidal effect) [1] | Pre-emergence treatment Bulrush (herbicidal effect) [2] | Post-emergence treatment Barnyard grass (herbicidal effect) [3] | Post-emergence treatment Bulrush (herbicidal effect) [4] | Post-emergence treatment Monochoria (herbicidal effect) [5] | Herbicidal effect Ec [6] | Herbicidal effect Vp [7] | Herbicidal effect Ga [8] | Herbicidal effect Xs [9] | Herbicidal effect Am [10] | Herbicidal effect At [11] | Phytotoxicity So (soybean plant (So)) | Phytotoxicity Wh (wheat (Wh)) | Herbicidal effect Ec [12] | Herbicidal effect Vp [13] | Herbicidal effect Ga [14] | Herbicidal effect Xs [15] | Herbicidal effect Am [16] | Herbicidal effect At [17] | Phytotoxicity So (soybean plant) | other results |
| --- | --- | --- | --- | --- | --- | --- | --- | --- | --- | --- | --- | --- | --- | --- | --- | --- | --- | --- | --- | --- | --- |
| CCCNC(=O)c1nc2c(cc1C(=O)Nc1cccc(Cl)c1C)CCOC2 [compound 450] | 5 (Weed-killing rate is 100%.) | 5 (Weed-killing rate is 100%.) | 5 (Weed-killing rate is 100%.) | 5 (Weed-killing rate is 100%.) | 5 (Weed-killing rate is 100%.) | 5 (Weed-killing rate is 100%.) | 5 (Weed-killing rate is 100%.) | 4 (Weed-killing rate is 90-99%.) | 4 (Weed-killing rate is 90-99%.) | 5 (Weed-killing rate is 100%.) | 5 (Weed-killing rate is 100%.) | 4 (Crop-killing rate is 90-99%.) | 4 (Crop-killing rate is 90-99%.) | 5 (Weed-killing rate is 100%.) | 5 (Weed-killing rate is 100%.) | 4 (Weed-killing rate is 90-99%.) | 4 (Weed-killing rate is 90-99%.) | 5 (Weed-killing rate is 100%.) | 5 (Weed-killing rate is 100%.) | 4 (Crop-killing rate is 90-99%.) | Phytotoxicity Wh (wheat): 4 (Crop-killing rate is 90-99%.) |
| CCCNC(=O)c1nc2c(cc1C(=O)Nc1cccc(Cl)c1C)COCC2 [compound 474] | 5 (Weed-killing rate is 100%.) | 5 (Weed-killing rate is 100%.) | 5 (Weed-killing rate is 100%.) | 5 (Weed-killing rate is 100%.) | 5 (Weed-killing rate is 100%.) | 5 (Weed-killing rate is 100%.) | 5 (Weed-killing rate is 100%.) | 4 (Weed-killing rate is 90-99%.) | 4 (Weed-killing rate is 90-99%.) | 5 (Weed-killing rate is 100%.) | 5 (Weed-killing rate is 100%.) | 3 (Crop-killing rate is 70-89%.) | 4 (Crop-killing rate is 90-99%.) | 5 (Weed-killing rate is 100%.) | 5 (Weed-killing rate is 100%.) | 4 (Weed-killing rate is 90-99%.) | 4 (Weed-killing rate is 90-99%.) | 5 (Weed-killing rate is 100%.) | 5 (Weed-killing rate is 100%.) | 3 (Crop-killing rate is 70-89%.) | Phytotoxicity Wh (wheat): 3 (Crop-killing rate is 70-89%.) |
| CCCNC(=O)c1nc2c(cc1C(=O)Nc1c(CC)ccc(Cl)c1CC)OCCC2 [compound 486] | 5 (Weed-killing rate is 100%.) | 5 (Weed-killing rate is 100%.) | 5 (Weed-killing rate is 100%.) | 5 (Weed-killing rate is 100%.) | 5 (Weed-killing rate is 100%.) | 5 (Weed-killing rate is 100%.) | 5 (Weed-killing rate is 100%.) | 5 (Weed-killing rate is 100%.) | 5 (Weed-killing rate is 100%.) | 5 (Weed-killing rate is 100%.) | 5 (Weed-killing rate is 100%.) | 4 (Crop-killing rate is 90-99%.) | 4 (Crop-killing rate is 90-99%.) | 5 (Weed-killing rate is 100%.) | 5 (Weed-killing rate is 100%.) | 5 (Weed-killing rate is 100%.) | 5 (Weed-killing rate is 100%.) | 5 (Weed-killing rate is 100%.) | 5 (Weed-killing rate is 100%.) | 4 (Crop-killing rate is 90-99%.) | Phytotoxicity Wh (wheat): 4 (Crop-killing rate is 90-99%.) |
| CCCNC(=O)c1nc2c(cc1C(=O)Nc1cccc(Cl)c1C)OCCC2 [compound 498] | 5 (Weed-killing rate is 100%.) | 5 (Weed-killing rate is 100%.) | 5 (Weed-killing rate is 100%.) | 5 (Weed-killing rate is 100%.) | 5 (Weed-killing rate is 100%.) | 5 (Weed-killing rate is 100%.) | 5 (Weed-killing rate is 100%.) | 4 (Weed-killing rate is 90-99%.) | 4 (Weed-killing rate is 90-99%.) | 5 (Weed-killing rate is 100%.) | 5 (Weed-killing rate is 100%.) | 4 (Crop-killing rate is 90-99%.) | 4 (Crop-killing rate is 90-99%.) | 5 (Weed-killing rate is 100%.) | 5 (Weed-killing rate is 100%.) | 4 (Weed-killing rate is 90-99%.) | 4 (Weed-killing rate is 90-99%.) | 5 (Weed-killing rate is 100%.) | 5 (Weed-killing rate is 100%.) | 4 (Crop-killing rate is 90-99%.) | Phytotoxicity Wh (wheat): 4 (Crop-killing rate is 90-99%.) |
| CCCNC(=O)c1nc2c(cc1C(=O)Nc1c(CC)ccc(Cl)c1CC)CCCS2 [compound 510] | 5 (Weed-killing rate is 100%.) | 5 (Weed-killing rate is 100%.) | 5 (Weed-killing rate is 100%.) | 5 (Weed-killing rate is 100%.) | 5 (Weed-killing rate is 100%.) | 5 (Weed-killing rate is 100%.) | 5 (Weed-killing rate is 100%.) | 5 (Weed-killing rate is 100%.) | 5 (Weed-killing rate is 100%.) | 5 (Weed-killing rate is 100%.) | 5 (Weed-killing rate is 100%.) | 4 (Crop-killing rate is 90-99%.) | 5 (Crop-killing rate is 100%.) | 5 (Weed-killing rate is 100%.) | 5 (Weed-killing rate is 100%.) | 5 (Weed-killing rate is 100%.) | 5 (Weed-killing rate is 100%.) | 5 (Weed-killing rate is 100%.) | 5 (Weed-killing rate is 100%.) | 4 (Crop-killing rate is 90-99%.) | Phytotoxicity Wh (wheat): 5 (Crop-killing rate is 100%.) |

Reference: US6444617B1, “Fused-heterocycle dicarboxylic acid diamide derivatives or salts thereof, herbicide and usage thereof” (Nihon Nohyaku Co., Ltd., priority 1998, dated 2002)
